B1: HB-EGF: EGF-like domain of HB-EGF expressed in bacteria as thioredoxin (TRX) fusion protein, used as immunogen (protein)
chain: DLQEADLDLLRVTLSSKPQALATPNKEEHGKRKKKGKGLGKKRDPCLRKYKDFCIHGECKYVKELRAPSCICHPGYHGERCHGLSL

Assays:
[1] = tested on: EGFR phosphorylation on tyrosine residues; test: Biological activity of purified recombinant ligands: EGFR phosphorylation on tyrosine residues; assay type: cell-based; settings: TRX-TGFα 2, 20, 200 ng/ml; TRX-HB-EGF 3, 30, 300 ng/ml; 10 minute incubation
Protocol: FIGS. 1A-E depict construction, expression and biological activity of recombinant EGF-like ligands and detection of TGFα blocking antibodies using a GPI-anchored TGFα. […] Residue numbers are indicated. […] Molecular weight markers are indicated in kilodaltons. […] Cells were seeded in a 24-well plate, washed and incubated with increasing concentrations of the purified fusion proteins (TRX-TGFα: 2, 20, 200 ng/ml; TRX-HB-EGF: 3, 30, 300 ng/ml). EGF (10 ng/ml) was used as a positive control. After 10 minute incubation, the cells were lysed, and cleared extracts were immunoblotted (IB) with an anti-phosphotyrosine (P-Tyr) antibody. […] Residue numbers refer to TGFα. Cysteine residues of the EGF-like domain are highlighted. […] Cells were seeded in a 24-well plate, washed and incubated with or without TGFα (5 ng/ml), and with increasing volumes of an anti-serum from TGFα-immunized mice (0.2, 2, 4, 6, 8 and 10 μl of serum diluted in 120 μl total; control: 10 μl serum from a naive animal). An anti-phosphotyrosine mAb was used to detect phosphorylated EGFR.
Cells were seeded in a 24-well plate. Twenty-four hours later, cells were washed and incubated with different agents. After ten minutes of incubation, the cells were lysed and cleared extracts were electrophoresed, then immunoblotted with an anti-phosphotyrosine mAb, an anti-EGFR mAb (HeLa) or with an anti-ErbB-3 mAb (T47D).

[2] = tested on: BxPC3 xenografts; test: Anti-tumor activity in nude mice, BxPC3 xenografts; assay type: in vivo; settings: two intraperitoneal injections (days 16 and 21), 150 mg/kg body weight
Protocol: (§1) FIGS. 4A-B depict effective inhibition of proliferation and tumorigenicity (in vitro and in vivo) of human pancreatic cancer cells by a combination of anti-TGFα and anti-HB-EGF mAbs. […] BxPC3 cells (2×10^4) were seeded in a 96-well plate and allowed to adhere overnight, prior to the addition of anti-TGFα or anti-HB-EGF mAbs (each at 30 μg/ml), or a mixture of both mAbs (each at 15 μg/ml). Cell proliferation was determined in hexaplicates after 96 hours using the MTT method. Averages±S.D. are shown. The experiment was repeated twice. […] Female nude mice (6 week old) were inoculated subcutaneously with 2×10^6 BxPC3 cells. […]
(§2) FIGS. 5A-B depict effective inhibition of human pancreatic cancer cell growth (in vitro and in vivo) by a combination of two mAbs and chemotherapy. […] Of note, body weight monitoring detected no consistent trends and differences other than a slow gain of weight (data not shown).
(§3) Female atymic NCr-nude mice (6 week old; Harlen, Israel) were inoculated subcutaneously with 2×10^6 human cancer cells. […] Tumor volumes were monitored twice a week, and body weights were measured once a week.
as §3

[3] = tested on: BxPC3 pancreatic tumor cells; test: Cell proliferation assay (MTT), BxPC3; assay type: cell-based, human; settings: gemcitabine 50 mg/ml
Protocol: as §1, §2
BxPC3 pancreatic tumor cells were plated on 96-well plates (2,000 cells/well), in hexaplicates. […] Proliferation was measured after 24, 48 and 72 hours using the MTT method as was previously described [Mossmann T. J., Immunol Methods. […] Absorbance was determined at 570 nm.
BxPC3 pancreatic tumor cells were plated on 96-well plates (2,000 cells/well), in hexaplicates. […] Proliferation was measured after 24, 48 and 72 hours using the MTT method. […] Absorbance was determined at 570 nm.

| Molecule | ability to induce EGFR phosphorylation on tyrosine residues [1] | inhibition of tumor growth, BxPC3 xenografts [2] | growth inhibition of cultured BxPC3 cells (MTT), gemcitabine alone [3] |
| --- | --- | --- | --- |
| TGFα: EGF-like domain of TGFα expressed in bacteria as thioredoxin (TRX) fusion protein, used as immunogen | functionally active conformation |  |  |
| Nc1ccn([C@@H]2O[C@H](CO)[C@@H](O)C2(F)F)c(=O)n1 [gemcitabine] |  | more than 85% | growth inhibitory effect |
| B1 | functionally active conformation |  |  |

— patent publication US9518988B2, “Antibodies and methods of using same for treating ErbB/ErbB ligands associated diseases” (Yeda Research and Development Co. Ltd., priority 2010, dated 2016)
